The results in this text go back to patent US12595357B2, “Black knot melanin—a super-additive with UV absorbing and antioxidant properties” (The University of Akron, priority 2021, dated 2026).

The test is described as follows: DPPH assay for antioxidant activity (radical scavenging). In kind it is biochemical. Conditions: 0.1 mM DPPH solution, absorbance at 517 nm; masses greater than or equal to 40 μg. The method, then:
2,2-diphenyl-1-(2,4,6-trinitrophenyl) hydrazyl (DPPH) radical scavenging activity of BKF melanin was measured according to the procedure described in the literature. […] Afterwards, the UV-vis absorbance spectra were collected to monitor the decrease in the absorbance at 517 nm due to quenching of DPPH radical by the BKF melanin. Similar volumes of BKF melanin solution were added to pure ethanol (instead of 0.1 mM DPPH solution) to measure the absorbance of BKF melanin itself. Afterwards, the scavenging activity (or antioxidant activity) [I] was calculated using Equation 1, where Ac is the absorbance of DPPH solution without any BKF melanin, Ai is the absorbance of DPPH solution mixed with varying amounts of BKF melanin, and Aj is the absorbance of BKF melanin itself without DPPH solution. […]
The antioxidant activity of BKF melanin was investigated using the DPPH assay described above. The scavenging activity was determined by monitoring the decrease in absorbance of DPPH at 517 nm, since the DPPH is reduced through an electron transfer from the antioxidant material. […] As the ascorbic acid concentration increases from 0 to 60 μg, the absorbance at 517 nm decreases along with visual change in color from purple to yellow. The antioxidant activity (%) calculated using Equation 1 is plotted as a function of ascorbic acid mass in FIG. 3B. […]
In general terms: DPPH is a stable violet radical that fades when it is reduced.

Turning to `O=C1O[C@H]([C@@H](O)CO)C(O)=C1O` [ascorbic acid], the “antioxidant activity (%), saturated value” is around 90%.
